# In patent publication US8399473:
# Conditions: from C=Cc1ccc(N2C(=O)N=C(NC3CCCCC3)C23CCN(Cc2ccc(I)cc2)CC3)cc1; cc_pd bond; 2 steps
structure (smiles),measurement,value
O=C1N=C(NC2CCCCC2)C23CCN(CC2)Cc2ccc(cc2)CCc2ccc(cc2)N13,"ring closure, yield of all isomers",2.3%
